# Values quoted from earlier work in US9463243B2, “Amorphous medicinal fine particles produced by pulsed laser ablation in liquid and the production method thereof” (IMRA AMERICA, INC., priority 2012, dated 2016).
smiles,measurement,value
"COc1cc(/C=C/C(=O)CC(=O)/C=C/c2ccc(O)c(OC)c2)ccc1O [Curcumin, curcumin]",water solubility,water-insoluble
